Patent US7303876B2 (Applera Corporation, priority 2000, dated 2007)
Like-named read-outs stand apart in the source and are kept apart here.

Assays:
[1] = system: Liver tissue; assay: Liver tissue disaggregation by 1% surfactant with or without Proteinase K at 60° C.; set-up: Tissue Disaggregation: scale not given here; details: for Tissue Disaggregation: 60° C., 1% surfactant
Procedure: To evaluate the ability of various cationic surfactants to increase the digestion of tissue by Proteinase K, liver slices were digested using reaction compositions including one of the sixteen surfactants (shown in Table 4), both with and without Proteinase K. The reducing agent dithiothreitol (DTT) was included to evaluate the effect of reducing conditions on tissue digestion. […] One of the sixteen surfactants was added to one pair of tubes to yield a final concentration of 1% surfactant. The seventeenth pair of tubes served as non-surfactant controls. One milligram (mg) of Proteinase K was added to one tube of each of the seventeen pairs.
PK=presence or absence of Proteinase K in the reaction composition; Y=Proteinase K was present; N=Proteinase K was not present in the reaction composition.

[2] = system: slices of liver; assay: Maceration of liver slices by reaction compositions at 65° C.
Procedure: Initially, a series of reaction compositions were analyzed for their ability to disaggregate a biological sample, e.g., slices of liver. These reaction compositions comprised 100 mM Tris, pH 8.0, 20 mM dithiothreitol (DTT), and optionally,1 mg/ml Proteinase K, surfactants (e.g., cationic, nonionic and anionic detergents), chaotropes, or the additive 1-methyl-2-pyrollidinone (Sigma). Each reaction compositions was placed in a tube with a slice of liver and then incubated at 65° C. The tubes were observed periodically to determine which reaction compositions were able to efficiently macerate the sample.

[3] = Solubility of surfactants (0.5% Sarkosyl, LDS, SDS, CTAB; 5.0% others) in salt solutions
Procedure: In certain instances, the solubility of detergents in high salt may relate to on the composition of the salt and the detergent itself. A mixing experiment was performed to examine the solubility of a variety of anionic, cationic, and nonionic surfactants in different salt compositions. […] The salt solutions contained Lil, Nal, KI, Rbl, Csl , GuSCN, GuHCl, or NaClO4, at pH 6.0 or 10.0. […] The solubility of the surfactants was scored as either soluble or insoluble. The solubility of the surfactant in the salt solution was determined initially by visual observations for cloudiness or precipitate formation. The resulting solutions were also centrifuged to verify the absence of a precipitate by the absence of a precipitate pellet.

[4] = Fifteen Minutes Incubation, Proteinase K not present (N)
[5] = Fifteen Minutes Incubation, Proteinase K present (Y)
[6] = Fifty-Two Minutes Incubation, Proteinase K not present (N)
[7] = Fifty-Two Minutes Incubation, Proteinase K present (Y)
[8] = 1 mg/ml Proteinase K, 16-24 hr, 65° C., additive 0.1%
[9] = 1 mg/ml Proteinase K, 16-24 hr, 65° C., additive 1%
[10] = 1 mg/ml Proteinase K, 1 hr, 65° C., additive 0.1%
[11] = 1 mg/ml Proteinase K, 1 hr, 65° C., additive 1%
[12] = No Proteinase K, 2-5 hr, 65° C., additive 2%
[13] = No Proteinase K, 16-24 hr, 65° C., additive 2%
[14] = No Proteinase K, 72 hr, 65° C., additive 2%

CCCCCCCC/C=C\CCCCCCCC[N+](C)(C)Cc1ccccc1.[Cl-] [Mackernium KP, olealkonium chloride]
Tissue Disaggregation [1, 4]: 0
Tissue Disaggregation [1, 5]: 1
Tissue Disaggregation [1, 6]: 0
Tissue Disaggregation [1, 7]: 4

CCCCCCCCCCCCCC[N+](C)(C)C.[Br-] [TTAB, tetradecyltrimethylammonium bromide]
Tissue Disaggregation [1, 4]: 0
Tissue Disaggregation [1, 5]: 0
Tissue Disaggregation [1, 6]: 0
Tissue Disaggregation [1, 7]: 1

t-octylphenoxypolyethoxyethanol [Triton X-100]
maceration of liver slice [2, 8]: 0%
maceration of liver slice [2, 9]: 100%
maceration of liver slice [2, 10]: 0%
maceration of liver slice [2, 11]: 30%
maceration of liver slice [2, 12]: 0%
maceration of liver slice [2, 13]: 0%
Solubility of surfactant ([3]; pH 6): S
Solubility of surfactant ([3]; pH 10): S

C[C@H](CCC(=O)NCCS(=O)(=O)O)[C@H]1CC[C@H]2[C@@H]3[C@H](O)C[C@@H]4C[C@H](O)CC[C@]4(C)[C@H]3C[C@H](O)[C@]12C [Taurocholic Acid]
maceration of liver slice [2]: 0%

polyoxyethylenesorbitan monolaurate [Tween 21]
Solubility of surfactant ([3]; pH 6): S
Solubility of surfactant ([3]; pH 10): S

CCCCCCCCCCCCOCCOCCOCCO [Brij 30, triethyleneglycol monolauryl ether]
Solubility of surfactant ([3]; 4 M GuSCN, Urea, pH 6.0): S
Solubility of surfactant ([3]; 4 M GuSCN, Urea, pH 10.0): S
Solubility of surfactant ([3]; 4 M NaI, Urea, pH 6.0): S(V)
Solubility of surfactant ([3]; 6 M GuHCl, pH 6.0): S
Solubility of surfactant ([3]; 6 M GuHCl, pH 10.0): S
Solubility of surfactant ([3]; 6 M GuSCN, pH 6.0): S
Solubility of surfactant ([3]; 6 M GuSCN, pH 10.0): S
Solubility of surfactant ([3]; 6 M NaI, pH 6.0): S

Quaternium-84 [Mackernium NLE]
Tissue Disaggregation [1, 4]: 0
Tissue Disaggregation [1, 5]: 1
Tissue Disaggregation [1, 6]: 0
Tissue Disaggregation [1, 7]: 1

Benzalkonium Chloride
Tissue Disaggregation [1, 4]: 0
Tissue Disaggregation [1, 5]: 1
Tissue Disaggregation [1, 6]: 0
Tissue Disaggregation [1, 7]: 2

polyoxyethylenesorbitan monostearate [Tween 60]
Solubility of surfactant ([3]; pH 6): S
Solubility of surfactant ([3]; pH 10): S

CCCCCCCCCCCCCC[N+](C)(C)Cc1ccccc1.[Cl-] [Benzyldimethyltetradecyl ammonium chloride]
Tissue Disaggregation [1, 4]: 0
Tissue Disaggregation [1, 5]: 0
Tissue Disaggregation [1, 6]: 0
Tissue Disaggregation [1, 7]: 1

polyoxyethylenesorbitan monopalmitate [Tween 40]
Solubility of surfactant ([3]; pH 6): S
Solubility of surfactant ([3]; pH 10): S

(octylphenoxy)polyethoxyethanol [IGEPA]
Solubility of surfactant ([3]; pH 6): S
Solubility of surfactant ([3]; pH 10): S

CCCCCCCCCCCCCCCCCC[N+](C)(C)Cc1ccccc1.[Cl-] [Mackernium SDC-85, Stearalkonium chloride]
Tissue Disaggregation [1, 4]: 0
Tissue Disaggregation [1, 5]: 3
Tissue Disaggregation [1, 6]: 0
Tissue Disaggregation [1, 7]: 3

C[C@H](CCC(=O)NCC(=O)O)[C@H]1CC[C@H]2[C@@H]3[C@H](O)C[C@@H]4C[C@H](O)CC[C@]4(C)[C@H]3C[C@H](O)[C@]12C [Glycocholic Acid]
maceration of liver slice [2, 8]: 0%
maceration of liver slice [2, 9]: 0%
maceration of liver slice [2, 10]: 0%
maceration of liver slice [2, 11]: 0%

CCCCCCCCS(=O)(=O)O [Octyl sulfonate]
maceration of liver slice [2, 14]: 0%

N#CS.N=C(N)N [Guanidinium thiocyanate]
maceration of liver slice ([2]; 1 mg/ml Proteinase K, 2-5 hr, 65° C., additive 1 M): 25%
maceration of liver slice ([2]; No Proteinase K, 2-5 hr, 65° C., additive 1 M): 0%

C[C@H](CCC(=O)O)[C@H]1CC[C@H]2[C@@H]3[C@H](O)C[C@@H]4C[C@H](O)CC[C@]4(C)[C@H]3CC[C@]12C [Chenodeoxycholic Acid]
maceration of liver slice [2, 8]: 0%
maceration of liver slice [2, 9]: 0%
maceration of liver slice [2, 10]: 0%
maceration of liver slice [2, 11]: 0%
maceration of liver slice [2, 13]: 0%

CCCCCCCCCCCCCCCC[N+](C)(C)Cc1ccccc1.[Br-] [Benzyldimethylhexadecylammonium bromide]
Tissue Disaggregation [1, 4]: 0
Tissue Disaggregation [1, 5]: 0
Tissue Disaggregation [1, 6]: 0
Tissue Disaggregation [1, 7]: 1

polyoxyethylenesorbitan monooleate [Tween 80]
maceration of liver slice [2, 8]: 0%
maceration of liver slice [2, 9]: 0%
maceration of liver slice [2, 10]: 0%
maceration of liver slice [2, 11]: 0%
Solubility of surfactant ([3]; pH 6): S
Solubility of surfactant ([3]; pH 10): S

C[C@H](CCC(=O)NCCS(=O)(=O)O)[C@H]1CC[C@H]2[C@@H]3[C@H](O)C[C@@H]4C[C@H](O)CC[C@]4(C)[C@H]3CC[C@]12C [Taurochenodeoxycholic Acid]
maceration of liver slice [2, 8]: 0%
maceration of liver slice [2, 9]: 0%
maceration of liver slice [2, 10]: 0%
maceration of liver slice [2, 11]: 0%

CCCCCCCCCCCC[N+](C)(C)Cc1ccccc1.[Br-] [Benzyldimethyldodecylammonium bromide]
Tissue Disaggregation [1, 4]: 0
Tissue Disaggregation [1, 5]: 0
Tissue Disaggregation [1, 6]: 0
Tissue Disaggregation [1, 7]: 1

Cl.N=C(N)N [Guanidinium chloride]
maceration of liver slice ([2]; 1 mg/ml Proteinase K, 2-5 hr, 65° C., additive 2 M): 0%
maceration of liver slice ([2]; No Proteinase K, 2-5 hr, 65° C., additive 2 M): 0%

CCCCC(CC)COS(=O)(=O)[O-].[Na+] (stereo not drawn) [NiaProof Type 8]
maceration of liver slice [2, 8]: 0%
maceration of liver slice [2, 9]: 0%
maceration of liver slice [2, 10]: 0%
maceration of liver slice [2, 11]: 0%
maceration of liver slice [2, 12]: 0%

O[C@H](CS)[C@H](O)CS (racemic) [DTT, dithiothreitol]
effect of reducing agent on tissue disaggregation ([1]; 20 mM dithiothreitol): did not seem to significantly effect tissue disaggregation

C[N+](C)(C)C.[Cl-] [Tetramethylammonium chloride]
maceration of liver slice ([2]; 1 mg/ml Proteinase K, 16-24 hr, 65° C., additive 0.1 M): 0%
maceration of liver slice ([2]; 1 mg/ml Proteinase K, 16-24 hr, 65° C., additive 1 M): 0%
maceration of liver slice ([2]; 1 mg/ml Proteinase K, 1 hr, 65° C., additive 0.1 M): 0%
maceration of liver slice ([2]; 1 mg/ml Proteinase K, 1 hr, 65° C., additive 1 M): 0%
maceration of liver slice ([2]; No Proteinase K, 16-24 hr, 65° C., additive 0.1 M): 0%
maceration of liver slice ([2]; No Proteinase K, 16-24 hr, 65° C., additive 1 M): 0%

CCCCCCCC(=O)O [Octanonic Acid]
maceration of liver slice [2, 14]: 0%

C[C@H](CCC(=O)NCCS(=O)(=O)O)[C@H]1CC[C@H]2[C@@H]3CC[C@@H]4C[C@H](O)CC[C@]4(C)[C@H]3C[C@H](O)[C@]12C [Taurodeoxycholic Acid]
maceration of liver slice [2, 8]: 0%
maceration of liver slice [2, 9]: 0%
maceration of liver slice [2, 10]: 0%
maceration of liver slice [2, 11]: 0%

C[C@H](CCC(=O)O)[C@H]1CC[C@H]2[C@@H]3[C@H](O)C[C@@H]4C[C@H](O)CC[C@]4(C)[C@H]3C[C@H](O)[C@]12C [Cholic Acid]
maceration of liver slice [2, 13]: 0%
